Source: patent publication US7951232B2, “Surface coating compositions and methods” (Elevance Renewable Sciences, Inc., priority 2006, dated 2011)

Assays:
[1] = test system: Pseudomonas aeroginosa, ATCC 15442; experiment: Time-Kill Procedure (ASTM), rate of kill; format: cell-based, Pseudomonas aeruginosa
Experimental: (§1) The rate of kill for these organisms upon exposure to 9-decenoic acid was determined using the American Society for Testing and Materials (ASTM) procedure entitled “Standard Test Method for the Assessment of Microbiocidal Activity of Test Materials Using a Time-Kill Procedure”, October 1998. This procedure incorporates the recommendations described in the “Manual of Clinical Microbiology,”5th ed., edited by A. B. Balows et al., ASM, Washington, and is directed by the Federal Register, June 1994.
(§2) Stock cultures were transferred into TSB and incubated for 18-24 hours at 37±2° C. A second transfer was made onto TSA plates and were incubated for 18-24 hours at 37±2° C. The plates were removed from incubation and the bacterial growth washed from the agar surface using Butterfield's Phosphate Buffered Dilution Water (PBDW). The bacterial suspension was adjusted to contain approximately 10^8 Colony Forming Units (CFU)/ml with PBDW using spectrophometric methods extant in the laboratory.
(§3) The concentrated 9-decenoic acid was diluted 1:40 in filter sterilized isopropanol to yield a 2.5% stock solution. Subsequent dilutions to the 9-decenoic acid stock solutions were made with sterile Deionized Water (DI) to achieve concentrations of 0.1%, 0.05%, 0.01%, and 0.001%. The pH was determined for each dilution; pH values ranged from 4.4-4.1. Additionally, the 9-decenoic acid stock solution was adjusted to pH 7 with 1 N NaOH and serially diluted with sterile DI to achieve concentrations of 1.0%, 0.75% and 0.5%.
(§4) Compliant with the ASTM procedure cited, for each challenge microorganism a 9.9 ml aliquot of the prepared 9-decenoic acid suspension was added to a sterile tube. A 0.1 ml aliquot of the standardized inoculum was added to the 9-decenoic acid solution representing the start of the test exposure. The inoculated 9-decenoic acid solution was immediately mixed thoroughly. The inoculated suspension was held at room temperature for 0.5, 2, 5, 7 and 10 minute exposure times for tests run at ˜pH 4. The pH 7 tests were held at room temperature for 0.5 and 2 minutes.
(§5) At each exposure sample time, a 1.0 ml aliquot of the inoculated 9-decenoic acid suspension was transferred to 9.0 ml of D/E Neutralizing Broth. Additional ten-fold serial dilutions were made in PBDW and plated in duplicate on TSA. All plates were incubated for 48 hours at 37±2° C. and visually examined for growth. The plates are enumerated, recorded and log kill determined for each time point.
(§6) The following study controls were conducted: culture purity, neutralizer sterility, initial suspension population, test population, neutralization verification and a negative control using isopropanol. Culture purity was verified by performing a streak plate for isolated colonies on the each culture used. All cultures were determined to be pure based on consistent colony morphology typical for the test organism. The neutralizer sterility was confirmed by no growth in an incubated sample.
(§7) The population of the initial and test culture were determined by serial dilution, plating and enumerating after incubation. The initial suspension were determined to be ≧10^4 CFU/ml. The test culture population was used for calculation of the log reduction achieved at each time point.
(§8) Neutralization effectiveness was verified by a filtration test. For each organism, four tubes were prepared with 9 ml D/E Neutralizing Broth and fewer than 100 CFU/ml of the organism. A 1.0 ml aliquot of prepared 9-decenoic acid was added to each tube. Immediately, the entire contents of 2 tubes were filtered through a filtration apparatus and rinsed with sterile diluent. The remaining 2 tubes were held at room temperature for 30 minutes and then the entire contents were filtered using the same procedure. The filters were aseptically transferred to TSA plates and incubated for 48 hours at 37±2° C. and visually examined for growth.
(§9) This control was inoculated, subcultured and incubated as in the test procedure.

[2] = test system: Escherichia coli, ATCC 11229; experiment: Time-Kill Procedure (ASTM) at pH 7; format: cell-based
Experimental: as §1, §2, §3, §4, §5, §6, §7, §8, §9

[3] = test system: Aureobasidium pullulans (ATCC 12536); experiment: MIC on Potato Dextrose Agar surface; format: cell-based; conditions: PDA agar, 25-30° C., least concentration that completely inhibited growth
Experimental: The efficacy of antimicrobial compositions in accordance with aspects of the invention against the following organisms was determined as follows. The following organisms were incubated in the presence of varying concentrations of 9-decenoic acid (9-DA) on an agar surface: Aspergillus parasiticus (ATCC 56857), Trichoderma virens (ATCC 9645), Aureobasidium pullulans (ATCC 12536), Aspergillus flavus (ATCC 96045), Cladosporium cladosporiodes (ATCC 16022), Aspergillus flavus (ATCC 5917), Aspergillus oryzae (ATCC 10124), Aspergillus parasiticus (ATCC 13539), Ulocladium atrum (ATCC 52426), Candida albicans (ATCC 11651), Alternaria alternata (ATCC 52170), Stachybotrys chartarum (ATCC 16026), Aspergillus niger (ATCC 11414).
Fungal spores were hydrated in 0.1% Tween 80 and then plated onto Potato Dextrose Agar (PDA) (Difco # 213400; Becton, Dickinson and Company, Sparks, Md.) and incubated at 25-30° C. for six (6) days. The spores were washed from the surface with 5 ml of 0.1% Tween 80 and enumerated.
PDA plates were prepared according to the manufacturer's instructions through sterilization. The agar was tempered to approximately 50° C. and was filter sterilized. […]
The agar plates were inoculated with the spore solution to achieve 10^2 spores/plate. […] The percent coverage of growth on the agar surface was recorded at each sample point.

C=CCCCCCCCC(=O)O [9-decenoic acid]
0 log: Log reduction after exposure at pH 7 ([2]; 0.5%, pH 7, exposure 0.5 minutes) | Log reduction after exposure at pH 7 ([2]; 0.5%, pH 7, exposure 2 minutes)
0.01%: MIC [3]
>6.1 log: Log reduction of organisms after exposure ([1]; 0.01%, pH 4.4, exposure 0.5 minutes) | Log reduction of organisms after exposure ([1]; 0.01%, pH 4.4, exposure 2 minutes) | Log reduction of organisms after exposure ([1]; 0.01%, pH 4.4, exposure 5 minutes) | Log reduction of organisms after exposure ([1]; 0.01%, pH 4.4, exposure 7 minutes) | Log reduction of organisms after exposure ([1]; 0.01%, pH 4.4, exposure 10 minutes) | Log reduction of organisms after exposure ([1]; 0.05%, pH 4.1, exposure 0.5 minutes) | Log reduction of organisms after exposure ([1]; 0.05%, pH 4.1, exposure 2 minutes) | Log reduction of organisms after exposure ([1]; 0.05%, pH 4.1, exposure 5 minutes) | Log reduction of organisms after exposure ([1]; 0.05%, pH 4.1, exposure 7 minutes) | Log reduction of organisms after exposure ([1]; 0.05%, pH 4.1, exposure 10 minutes) | Log reduction of organisms after exposure ([1]; 0.1%, pH 4.1, exposure 0.5 minutes) | Log reduction of organisms after exposure ([1]; 0.1%, pH 4.1, exposure 2 minutes) | Log reduction of organisms after exposure ([1]; 0.1%, pH 4.1, exposure 5 minutes) | Log reduction of organisms after exposure ([1]; 0.1%, pH 4.1, exposure 7 minutes) | Log reduction of organisms after exposure ([1]; 0.1%, pH 4.1, exposure 10 minutes)
0.83 log: Log reduction after exposure at pH 7 ([2]; 0.75%, pH 7, exposure 0.5 minutes)
>4.2 log: Log reduction after exposure at pH 7 ([2]; 0.75%, pH 7, exposure 2 minutes) | Log reduction after exposure at pH 7 ([2]; 1.0%, pH 7, exposure 0.5 minutes) | Log reduction after exposure at pH 7 ([2]; 1.0%, pH 7, exposure 2 minutes)
